Source: US8648112B2, “Therapeutic uses of urolithins” (The Regents of the University of California, priority 2006, dated 2014)

Columns and labels:
[1] = test system: 22Rv1 cells; experiment: Assessment of apoptosis (Cell Death Detection ELISA), 22Rv1; type: cell-based, human; details: 48 h, p=0.05
Procedure: (§1) Assessment of apoptosis. Apoptosis was assessed utilizing the Cell Death Detection ELISAPLUS Assay (Boehringer Mannheim, Indianapolis, Ind.). This assay is a photometric enzyme-linked immunoassay that quantitatively measures the internucleosomal degradation of DNA, which occurs during apoptosis. Specifically, the assay detects histone associated mono- and oligonucleosomes, which are indicators of apoptosis. Cells (22RV1, PC-3, LNCaP, LNCaP-AR), were plated in 60 mm dishes at a density of 100,000 cells/dish and allowed to attach for 24 hours. Cells were treated with vehicle control (100% DMSO; 0.3% final concentration), or urolithin B (0-50 μg/mL or 0-236 μM) for 48 hours. Following treatments, non-adherent cells were collected and pelleted at 200×g for ten minutes. The supernatant was discarded; the cell pellet was washed with cold CMF-PBS and re-centrifuged. […] Both live and dead cells were then counted via trypan blue exclusion (Pierce, Rockford, Ill.) and equal numbers of cells were added to the microtiter plate for all treatment groups and apoptosis assay was performed according to the manufacturer's instructions. Data are expressed as absorbance at 405 nm of each sample over vehicle controls as follows=treatment value-blank/vehicle value-blank.

[2] = test system: LNCaP-AR cells; experiment: Assessment of apoptosis (Cell Death Detection ELISA), LNCaP-AR; type: cell-based, human; details: 48 h, p=0.01
Procedure: as §1

[3] = test system: human pancreatic cancer cell line BXPC-3; experiment: Antiproliferative activity against pancreatic cancer cells (CellTiter-Glo), BXPC-3; type: cell-based; details: 100 μg/mL, 48 hrs
Procedure: (§2) EA and EA-metabolites (gallic and gallagic acids, urolithin B and methylated-urolithin A) were evaluated for antiproliferative activity against the human pancreatic cancer cell lines ASPC-1 and BXPC-3. The cells were grown to a concentration of 10,000 cells per well; and were then resuspended in medium containing the vehicle control or the indicated compound: Ellagic acid, urolithin A, methyl urolithin A, or urolithin B, at a concentration of 100 μg/mL. The cells were incubated for 48 hrs, and the viability assayed byCellTiter-Glo® Luminescent Cell Viability Assay (Technical Bulletin #288, Promega Corp., Madison, Wis.).

[4] = test system: human colon cancer cell line HCT-116; experiment: Antiproliferative activity against colon cancer cells (CellTiter-Glo); type: cell-based; details: 100 μg/mL, 48 hrs
Procedure: as §2, with “colon” for “pancreatic”, “line HCT-116.” for “lines ASPC-1 and BXPC-3.”, “well in a 96 well format;” for “well;”, “containing” for “containing the”, “by the CellTiter-Glo®” for “byCellTiter-Glo®”

[5] = test system: Hi-Myc prostate cancer cell line; experiment: Antiproliferative cell assay (CellTiter-Glo), Hi-Myc; type: cell-based; details: Hi-Myc (mouse), 48 h exposure, read-out: IC50 against prostate cancer cell line HiMyc
Procedure: (§3) Cell Culture Materials. The 22Rv1, DU145, LNCaP and PC3 prostate cancer cell lines were obtained from American Type Culture Collection (ATCC, Rockville, Md.). The LNCaP-AR and Hi-Myc cell lines were a kind donation by Dr. C. Sawyers (David Geffen School of Medicine, UCLA, Los Angeles, Calif.). DU145, 22Rv1, LNCaP, LNCaP-AR, and PC3 cells were grown in RPMI 1640; Hi-Myc cells were grown in Isecove's Modified Dulbecco's Medium. All media contained 10% fetal bovine serum (FBS) in the presence of 100 U/mL penicillin and 0.1 g/L streptomycin. RWPE-1 prostate cells were grown in Defined Keratinocyte Serum Free Medium (DKSFM) containing epidermal growth factor (EGF), insulin and fibroblast growth factor (FGF). Cells were incubated at 37° C. with 95% air and 5% CO2. All cells were maintained below passage 20 and used in experiments during the linear phase of growth.
(§4) Proliferation was measured utilizing the CellTiter-Glo® Luminescent Cell Viability Assay (Technical Bulletin #288, Promega Corp., Madison, Wis.). When added to cells, the assay reagent produces luminescence in the presence of ATP from viable cells. Cells were plated in 96-well plates at a density of 10,000 cells/well and incubated for 24 hours. Test samples were solubilized in DMSO by sonication, filter sterilized and diluted with media to the desired treatment concentration. Cells were treated with 100 μLcontrol media, vehicle control (DMSO<0.2% of total) or test samples and incubated for 48 h drug exposure duration at 6.25, 12.5, 25, 50 and 100 μg/mL concentrations. At the end of 48 h, plates were equilibrated at room temperature for 30 min; 100 μL of the assay reagent was added to each well and cell-lysis was induced on an orbital shaker for 2 min. Plates were incubated at room temperature for 10 min to stabilize the luminescence signal and results were read on an Orion Microplate Luminometer (Bertholds Detection Systems, Pforzheim, Germany). All plates had control wells containing medium without cells to obtain a value for background luminescence. Data are expressed as percentage of untreated cells (i.e. treatment value-blank/vehicle value-blank), mean±SE for three replications.

[6] = test system: LNCaP-AR prostate cancer cell line; experiment: Antiproliferative cell assay (CellTiter-Glo), LNCaP-AR; type: cell-based, human; details: Homo sapiens, 48 h exposure, read-out: IC50 against prostate cancer cell line LNCap-AR
Procedure: as §3, §4

[7] = test system: DU145 prostate cancer cell line; experiment: Antiproliferative cell assay (CellTiter-Glo), DU145; type: cell-based, human; details: Homo sapiens, DU-145, 48 h exposure, read-out: IC50 against prostate cancer cell line DU145
Procedure: as §3, §4

[8] = test system: LNCaP prostate cancer cell line; experiment: Antiproliferative cell assay (CellTiter-Glo), LNCaP; type: cell-based, human; details: Homo sapiens, 48 h exposure, read-out: IC50 against prostate cancer cell line LNCaP
Procedure: as §3, §4

[9] = test system: LNCaP cells; experiment: Assessment of apoptosis (Cell Death Detection ELISA), LNCaP; type: cell-based, human; details: 48 h, p=0.01
Procedure: as §1

[10] = test system: PC3 cells; experiment: Assessment of apoptosis (Cell Death Detection ELISA), PC3; type: cell-based, human; details: 48 h, p=0.05
Procedure: as §1

[11] = test system: 22Rv1 prostate cancer cell line; experiment: Antiproliferative cell assay (CellTiter-Glo), 22Rv1; type: cell-based, human; details: Homo sapiens, 22Rv1, 48 h, 48 h exposure, read-out: IC50 against prostate cancer cell line 22 Rv1
Procedure: as §3, §4

[12] = test system: PC3 prostate cancer cell line; experiment: Antiproliferative cell assay (CellTiter-Glo), PC3; type: cell-based, human; details: Homo sapiens, 48 h exposure, read-out: IC50 against prostate cancer cell line PC3
Procedure: as §3, §4

[13] = test system: human pancreatic cancer cell line ASPC-1; experiment: Antiproliferative activity against pancreatic cancer cells (CellTiter-Glo), ASPC-1; type: cell-based; details: 100 μg/mL, 48 hrs
Procedure: as §2

O=c1oc2cc(O)ccc2c2ccccc12 [Urolithin B, 3-hydroxy-6H-dibenzo[b,d]pyran-6-one]
concentration showing statistically significant pro-apoptotic effect [1]: 59 µM
concentration showing statistically significant pro-apoptotic effect [2]: 59 µM
anti-proliferative activity, rank order [3]: urolithin A is the most active, then ellagic acid, urolithin B and methyl urolithin A
anti-proliferative activity, rank order [4]: urolithin A is the most active, then ellagic acid, urolithin B and methyl urolithin A
IC50 [5]: 59.9 µM
IC50 [6]: 28.5 µM
IC50 [7]: 59.4 µM
IC50 [8]: 90.5 µM
concentration showing statistically significant pro-apoptotic effect [9]: 118 µM
concentration showing statistically significant pro-apoptotic effect [10]: 29.5 µM
IC50 [11]: 118 µM
IC50 [12]: 127 µM
anti-proliferative activity, rank order [13]: urolithin A is the most active, then ellagic acid, urolithin B and methyl urolithin A
